The values below come from patent US20150238487A1, “NOVEL ERGOLINE DERIVATIVES AND USES THEREOF” (MAP Pharmaceuticals, Inc., priority 2012, published 2015).

The term IC50 denotes the concentration that inhibits the measured activity by half. As usually defined, the EC50 is the concentration that produces a half-maximal response.

The target in test [1] is T1, Adrenergic α1B (Homo sapiens, UniProt P35368).
T1 construct: expressed in transfected cells; host or cells: CHO-K1 mAeq
The test is described as follows: Aequorin assay, Adrenergic α1B. The class given is cell-based. The following applies: antagonism, CHO-K1 mAeq, read-out: Activity (Antagonism: IC50), Adrenergic a1B. As to the method: (§1) Receptor […] activity assays were performed using 8′OH-2-CF3-dihydroergotamine (8′OH-2-CF3-DHE). Table 1 summarizes the cell lines (CHO-K1/HEK293 transfected with relevant human receptor) and the assays performed to detect any agonist or antagonist activity.
(§2) Aequorin assays were conducted to monitor activity for 8′OH-2CF3-dihydroergotamine (8′OH-2CF3-DHE) against the receptors indicated in Table 1 above (except for mGlu3 and mGlu5). CHO-K1 cells coexpressing mitochondrial apoaequorin and the recombinant human receptor of interest were grown to mid-log phase in culture media without antibiotics and then detached with PBS-EDTA, centrifuged and resuspended in assay buffer (DMEM/HAM's F12 with HEPES, without phenol red+0.1% BSA, protease free) at a concentration of 1×10^6 cell/mL. […]
(§3) 50 μL of the cell suspension was mixed with 50 μL of test or reference agonist in a 96-well plate. The resulting emission of light was recorded using Hamamatsu Functional Drug Screening System 6000 (FDSS 6000) luminometer. […]
(§4) To standardize the emission of recorded light (and determine of the “100% signal”) across plates and across different experiments, some wells contained 100 μM digitonin or a saturating concentration of ATP (20 μM).

The target in test [2] is T2, Serotonin 5-HT2A (Homo sapiens, UniProt P28223).
T2 construct: expressed in transfected cells; host or cells: CHO-K1 mAeq Gα16
T2 sequence (P28223 whole entry): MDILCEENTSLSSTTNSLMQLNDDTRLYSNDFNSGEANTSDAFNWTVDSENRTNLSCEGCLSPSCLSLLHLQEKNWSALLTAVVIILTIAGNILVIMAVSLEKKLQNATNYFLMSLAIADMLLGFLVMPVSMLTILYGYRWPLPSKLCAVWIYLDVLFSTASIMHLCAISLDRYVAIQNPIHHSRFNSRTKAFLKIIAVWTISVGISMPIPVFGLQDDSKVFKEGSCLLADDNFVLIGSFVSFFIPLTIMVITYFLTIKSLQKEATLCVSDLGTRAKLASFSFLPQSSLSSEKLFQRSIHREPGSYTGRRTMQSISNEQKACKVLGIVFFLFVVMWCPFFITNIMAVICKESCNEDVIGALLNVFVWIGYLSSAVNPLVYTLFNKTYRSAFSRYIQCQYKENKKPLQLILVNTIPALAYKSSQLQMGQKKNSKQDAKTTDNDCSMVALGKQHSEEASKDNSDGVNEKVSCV
The test is described as follows: Aequorin assay, Serotonin 5-HT2A. The class given is cell-based. The following applies: agonism; CHO-K1 mAeq Gα16, Aequorin. As to the method:
as §1, §2, §3, §4

Test [3] addresses T3, Serotonin 5-HT3 (Homo sapiens, UniProt P46098).
T3 construct: expressed in transfected cells; host or cells: HEK-293 mAeq
The test is described as follows: Aequorin assay, Serotonin 5-HT3. The class given is cell-based. The following applies: antagonism, HEK-293 mAeq. As to the method: as §1, §2, §3, §4

In test [4] the test system is Opioid (OP1/OP2/OP3). The test is described as follows: GTPγ[35S] assay, Opioid receptors. The class given is biochemical, human. Particulars: CHO-K1 membranes. As to the method:
as §1
GTPγS studies were conducted to monitor agonist activity for 8′OH-2CF3-dihydroergotamine (8′OH-2CF3-DHE) against the receptors indicated in Table 1 above. Reagents used were the following: Assay buffer (20 mM HEPES, pH 7.4; 100 mM NaCl; 10 μg/mL saponin; 30 mM MgCl2); Membranes (recombinant human receptor membrane extracts were thawed on ice and diluted in assay buffer to give 1000 μg/mL ([…]) and kept on ice); GDP (diluted in assay buffer to give 30 μM solution (3 μM final concentration); beads (PVT-WGA (Amersham, RPNQ001), diluted in assay buffer at 25 mg/mL (0.25 mg/10 μL)); GTPγ^35S (Perkin Elmer, NEG030X), diluted in assay buffer to give 0.1 nM (final concentration); and ligand (agonist/antagonist diluted in assay buffer).
Membranes were mixed with GDP (1:1) and incubated for at least 15 minutes on ice. In parallel GTPγ^35S was mixed with the beads (1:1) just before starting the reaction. […] The plates were then centrifuged for 10 minutes at 2000 rpm and incubated at room temperature for 1 hour and counted for 1 min/well with a Perkin Elmer TopCount reader.

The target of test [5] is T4, Calcitonin (CGRP) (Homo sapiens, UniProt O60894+Q16602).
T4 construct: expressed in transfected cells; host or cells: CHO-AEQ (CHO-K1 coexpressing mitochondrial apoaequorin)
T4 sequence (Q16602 23-461): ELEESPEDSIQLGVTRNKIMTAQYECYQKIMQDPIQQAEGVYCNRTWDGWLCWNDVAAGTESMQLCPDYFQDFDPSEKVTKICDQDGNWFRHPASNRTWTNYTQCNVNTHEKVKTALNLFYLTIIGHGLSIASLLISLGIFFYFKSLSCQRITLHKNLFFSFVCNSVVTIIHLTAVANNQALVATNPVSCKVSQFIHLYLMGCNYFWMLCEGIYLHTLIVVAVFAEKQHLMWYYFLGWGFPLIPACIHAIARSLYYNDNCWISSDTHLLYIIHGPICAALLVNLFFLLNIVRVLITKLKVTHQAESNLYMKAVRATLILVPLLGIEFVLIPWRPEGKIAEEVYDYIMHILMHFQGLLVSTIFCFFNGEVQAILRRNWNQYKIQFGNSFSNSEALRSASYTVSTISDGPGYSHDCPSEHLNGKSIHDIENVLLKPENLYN
T4 sequence (O60894 27-148 partner): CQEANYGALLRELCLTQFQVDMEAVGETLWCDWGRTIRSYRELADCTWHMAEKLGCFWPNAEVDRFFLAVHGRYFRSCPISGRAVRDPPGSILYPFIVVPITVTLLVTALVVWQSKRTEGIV
The test is described as follows: Aequorin assay, CGRP receptor. Particulars: CHO-AEQ. Format: cell-based. The procedure:
as §1, §2, §3, §4

T3 sequence (P46098 24-478): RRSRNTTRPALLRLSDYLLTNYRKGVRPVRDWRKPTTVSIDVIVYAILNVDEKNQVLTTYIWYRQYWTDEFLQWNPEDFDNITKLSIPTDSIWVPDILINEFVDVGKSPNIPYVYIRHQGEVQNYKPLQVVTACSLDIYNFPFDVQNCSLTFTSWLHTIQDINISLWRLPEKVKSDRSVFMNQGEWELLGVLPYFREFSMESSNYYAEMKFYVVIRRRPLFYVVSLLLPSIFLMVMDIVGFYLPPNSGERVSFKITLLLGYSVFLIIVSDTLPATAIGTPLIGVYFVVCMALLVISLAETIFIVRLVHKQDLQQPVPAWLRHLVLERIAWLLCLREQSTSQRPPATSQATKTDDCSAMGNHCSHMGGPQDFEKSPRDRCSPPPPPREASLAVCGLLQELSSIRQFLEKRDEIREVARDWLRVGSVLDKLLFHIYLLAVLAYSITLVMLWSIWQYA
T1 sequence (P35368 whole entry): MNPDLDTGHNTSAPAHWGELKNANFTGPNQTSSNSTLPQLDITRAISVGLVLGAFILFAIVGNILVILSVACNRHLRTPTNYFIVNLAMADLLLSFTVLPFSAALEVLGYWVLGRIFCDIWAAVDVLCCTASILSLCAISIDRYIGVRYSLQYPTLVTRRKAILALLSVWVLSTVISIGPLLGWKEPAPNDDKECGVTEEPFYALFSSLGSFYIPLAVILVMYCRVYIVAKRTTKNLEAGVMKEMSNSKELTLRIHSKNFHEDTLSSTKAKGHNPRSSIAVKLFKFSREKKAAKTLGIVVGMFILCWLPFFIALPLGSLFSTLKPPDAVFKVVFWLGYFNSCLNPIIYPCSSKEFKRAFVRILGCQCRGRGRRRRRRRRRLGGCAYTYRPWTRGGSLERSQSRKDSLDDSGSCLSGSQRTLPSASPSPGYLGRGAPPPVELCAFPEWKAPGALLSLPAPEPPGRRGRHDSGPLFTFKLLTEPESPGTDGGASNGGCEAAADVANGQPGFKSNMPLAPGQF

Consider `CN1C[C@H](C(=O)N[C@]2(C)O[C@@]3(O)[C@@H]4CC[C@@H](O)N4C(=O)[C@H](Cc4ccccc4)N3C2=O)C[C@@H]2c3cccc4[nH]c(C(F)(F)F)c(c34)C[C@H]21` [8′OH-2-CF3-DHE, 8′-Hydroxy-2-CF3-dihydroergotamine], for which the IC50 in test [1] was found to be 10.9 nM; in test [3], 2760 nM. The EC50 in test [2] was 607 nM. In test [4], the “Activity (Agonism: EC50; Antagonism: IC50), Opioid (OP1/OP2/OP3)” value was “Inactive”. Besides, in test [5], the “Activity (Agonism: EC50; Antagonism: IC50), Calcitonin (CGRP)” value is listed as “Inactive”.
